Row | Structure (SMILES) | melting point [°C]
1 | CCCC(CCC)N1Cc2c(C(=O)O)cc(N(C)S(C)(=O)=O)cc2C1=O | 206
2 | FC(F)(F)c1cc(N2CCN(Cc3ccc4ccccc4n3)CC2)ccc1Cl | 61 to 64
3 | Nc1ccc(Br)cc1CS(=O)(=O)c1ccccc1 | 140 to 141
4 | CCC(C)(C)NC(=S)Nc1cc(Br)cc(Br)c1 | 147 to 149
5 | CC1(C)CCC(C)(C)c2cc(COc3ccc(C(=O)O)cc3-c3ccccc3)ccc21 | 195 to 198
6 | CC(C)C(=N)Nc1cc(F)ccc1N1CCOCC1 | 142
7 | CCC(=Cc1cccc([N+](=O)[O-])c1)[N+](=O)[O-] | 68 to 72
8 | CCCCc1c2c(nc3cc(F)c(F)cc13)-c1cc3c(c(=O)n1C2)COC(=O)CC3(O)CC (centres undefined) | > 275
9 | CN(C(=O)Cn1c(-c2ccc(C(F)(F)F)cc2)nc2cccnc21)c1ccccc1 | 158 to 159
10 | Cc1ccc(CCN2C(=O)COc3ccc(C=C4SC(=S)NC4=O)cc32)cc1 | 267 to 269
11 | N#Cc1ccccc1-c1ccc2[nH]c(CCl)nc2c1 | 150 to 158
12 | Nc1nc2cc(-c3cccnc3)ccc2c2c1nc(CO)n2CC1CCOCC1 | 260 to 262
13 | CC(C)c1cccc(-c2c(-c3ccc4nn(C)cc4c3)nsc2NC(=O)[C@@H]2C[C@H]2C)n1 | 142 to 144
14 | COc1cc(N2CCC(N3CC[C@@H](O)C3)CC2)ccc1[N+](=O)[O-] | 137 to 139
15 | CNC(=O)NN(CC(=O)OC)c1cccc(OC)c1 | 145 to 146
16 | COC1=C(OC)C(=O)C2=C(CC(CCCCCCCC(=O)O)(C(=O)O)C2)C1=O | 119 to 123
17 | CC(=O)NC[C@H]1CN(c2ccc(-c3nc(Cn4ccnc4)co3)c(F)c2)C(=O)O1 | 198 to 200
18 | CCC(=O)NNC(=O)C(=O)NC1CC(C)(C)NC(C)(C)C1 | 221 to 225
19 | Cc1cc(C(C)(C)C)c(O)c(S(=O)(=O)Nc2ccc([N+](=O)[O-])cc2Cl)c1 | 239 to 243
20 | O=C(O)Cc1c(C(=O)c2ccc(-c3ccccc3)cc2)[nH]c2cc(Cl)ccc12 | 228 to 231
21 | CCOC(=O)CNc1nccc(-c2ccccn2)n1 | 85
22 | CCCCCCCCCCCCCCCCCCOc1cc(OCCCCCCOc2ccc(OCc3ccccc3)cc2)cc(C(=O)OCc2ccccc2)c1 | 60 to 62
23 | Cc1nc2c(S(N)(=O)=O)cccc2s1 | 236 to 239

Row | Structure (SMILES) | melting point [°C]
24 | Nc1sc(-c2ccncc2)c(CN(C2CCCCC2)C2CCCCC2)c1C(=O)c1ccc(Cl)cc1 | 214 to 216
25 | Fc1nc2ccccc2cc1Br | 75 to 76
26 | Cc1cc(CO)nc2cc3c(cc12)OC(C)(C)[C@H](O)[C@H]3NCCc1ccc(F)cc1 (relative stereo) | 147 to 152
27 | CN(C)CCNC(=O)c1cccc(N)c1 | 97 to 100
28 | O=C1C2CCCCN2C(=O)N1c1ccc([N+](=O)[O-])c2ccccc12 (centres undefined) | 190 to 192
29 | CCCc1nc2c(N)nc3cc(-c4cccc(C(=O)N5CCOCC5)c4)ccc3c2s1 | 190 to 193
30 | O=C(Nc1nc2n(n1)Cc1ccccc1-2)c1ccccc1 | 220 to 221
31 | CNC(=O)NS(=O)(=O)c1cc2c(cc1OC)OCC(NC(=O)c1cc(F)ccc1OC)C2 (centres undefined) | 260
32 | CSc1ccc(NC(=O)NCc2cc(C(C)(C)C)c(O)c(C(C)(C)C)c2)cc1 | 141 to 145
33 | CC(C)(O)c1cccc(-c2ccc3nc(-c4ccc(Cl)cc4)c(Cl)n3c2)c1 | 172 to 173
34 | CCOC(=O)c1cc(=O)c2ccc(O)cc2o1 | 221 to 223
35 | COc1ccc(N2CCN(c3cc(C)c4c(c3C)CC(C)(C)O4)CC2)cc1 | 174 to 175
36 | CCCc1cc(C(O)(CC)CC)ccc1-c1cc(OCc2ccc(CO)c(CO)c2)ccc1CC | 101
37 | O=C(Cn1c(-c2ccc(Cl)cc2)nc2cccnc21)N1CCCC1 | 224 to 225
38 | CC(C)c1ccc(C(C[N+](=O)[O-])SC(=S)N(C)C)cc1 (centres undefined) | 119 to 120
39 | COc1cc(C(=O)O)ccc1Cc1cn(C)c2ccc(CC3CCN(C)C3=O)cc12 (centres undefined) | 232 to 233
40 | Cc1ccc(N2C(=O)C(O)=C(C(=O)c3ccc(OC(F)(F)F)cc3)C2c2ccc(Cn3cnnn3)cc2)nn1 (centres undefined) | > 300
41 | O=CCCCCCCCCCCC(=O)O | 53 to 54
42 | CCOc1nc(N(C)C)nc(=O)[nH]1 | 215 to 216
43 | CC1(c2cc(-c3cccc(CC4SC(N5CCOCC5)=NC4=O)c3)ccc2O)CCCCC1 (centres undefined) | 98 to 99
44 | CS(=O)(=O)c1ccc(-c2cnn(-c3ccc(F)cc3)c(=O)c2S(=O)(=O)c2ccccc2)cc1 | 203 to 204
45 | CCCCc1oc2ccccc2c1C(=O)Nc1ccc2cc(OCC(=O)OC)ccc2c1 | 131 to 133
46 | C=CCc1cc(NC(C)=O)ccc1OCC1(O)CN2CCC1CC2 (centres undefined) | 170 to 172

Row | Structure (SMILES) | melting point [°C]
47 | CN1CCC(N(C)c2ncc3ncnc(Nc4ccc(Cl)c([N+](=O)[O-])c4)c3n2)CC1 | 210 to 215
48 | COc1cc2c(cc1OC)CN(c1c(C)c(C)c3c(c1C)C(c1ccc(C)cc1)C(C)(C)O3)C2 (centres undefined) | 156 to 159
49 | COc1ccc(Nc2cc(-c3ccc(F)cc3)nc3ccccc23)cc1Cl | 260
50 | N#Cc1ccc2c(c1)-c1cc(C#N)ccc1OCCO2 | 195 to 196
51 | Cc1cccc2ncc(C(=O)NC34CC5CC(CC(C5)C3)C4)c(=O)n12 | 190 to 193
52 | COc1ccc(/C=C/C(=O)N2CC(CCl)c3c2cc(NC(=O)OC(C)(C)C)c2ccccc32)cc1 (centres undefined) | 185 to 186
53 | O=C1N(Cc2ccc(C(F)(F)F)o2)c2ccccc2C12COc1ccc(Br)cc12 (centres undefined) | 143 to 145
54 | OCc1nccc2c1[nH]c1ccccc12 | 228 to 230
55 | COc1cccc2c1CC1OC1C2 (centres undefined) | 49.5 to 50.5
56 | CCc1ccc2c(c1)C(c1ccccc1F)=NCC1CN=C(C)N21 (centres undefined) | 152 to 154
57 | COc1ccc2ccc(O)c([N+](=O)[O-])c2c1 | 130 to 131
58 | COC(=O)c1cccc2c(-c3ccc(O)cc3)n(C(C)C)nc12 | 195 to 196
59 | O=c1n(Cc2ccccc2)nc2n1C=Cc1ccccc1C2 | 133 to 134
60 | CC(C)CNc1c(N)c2nnnn2c2ccccc12 | 148 to 150
61 | Nc1nc(N)c2c(CCCc3ccc(C(=O)N[C@@H](CCC(=O)O)C(=O)O)cc3)cnc-2[nH]1 | > 250
62 | C[C@H](NC(=O)c1c(C(=O)O)cccc1[N+](=O)[O-])C(=O)N1CCC[C@H]1C(=O)O | 134 to 137
63 | CCN(C)C1CCCN(C(=O)c2ccc(NC(=O)c3ccccc3C)cc2)c2ccccc21 (centres undefined) | 192 to 193
64 | Cn1nc(-c2ncc(Cl)cc2F)c([N+](=O)[O-])c1OC(F)F | 108 to 109
65 | [N-]=[N+]=Nc1ccc(C=Cc2ccncc2)cc1 | 88.2 to 89.4
66 | CC(=O)C1CCC2C3CCC4CC(=O)C(C)CC4(C)C3C(=O)CC12C (centres undefined) | 176
67 | C=CCN(c1ncnc2c1ncn2CCCCCCCCC(=O)O)C1CCCCC1 | 100 to 102
68 | CC(=O)C1CCC2C3CC=C4CC(F)CCC4(C)C3CCC12C (centres undefined) | 166 to 167
69 | c1ccc(CN2C[C@@H]3Cc4cc5ccccc5n4C[C@@H]3C2)cc1 (relative stereo) | 91 to 93
